Values after ≈ are worked out from the molar mass of the structure shown. Like-named read-outs stand apart in the source and are kept apart here.
Assays:
Format in all cases: cell-based
[1] = test system: E. coli ATCC 25922 (sensitive); assay: Antibacterial assay, MIC in 96-well plates at different pH; conditions: Escherichia coli, ATCC25922, 24 h, E. coli sensitive, after one day, read-out: MIC
From the text: (§1) The antibacterial effect was studied in two Gram-positive and in two Gram-negative strains. The Gram-positive S. aureus ATCC 25923 (ATCC, Manassas, VA, USA) is a methicillin-susceptible reference bacterial strain, while S. aureus 272123 is a clinical isolate and resistant to methicillin and ofloxacin (MRSA), which was given by Prof. Dr. Leonard Amaral (Institute of Hygiene and Tropical Medicine, Lisbon, Portugal). The Gram-negative strains were E. coli ATCC 25922 (ATCC, Manassas, VA, USA), which is sensitive to antibiotics, and E. coli 32313 (provided by the Institute of Clinical Microbiology, University of Szeged, Hungary), which is resistant to different antibiotics (trimethoprim/sulfamethoxazole, gentamicin, ciprofloxacin, and norfloxacin).
(§2) The minimum inhibitory concentrations (MICs) of the compounds were determined in 96-well plates based on the Clinical and Laboratory Standard Institute guidelines. The compounds were diluted in 100 μL of Mueller Hinton broth. Then, an overnight bacterial culture diluted 10,000 times in 100 μL of medium was added to each well, with the exception of the medium control wells. For each strain and each tested compound, four pH values were set (5, 6, 7, and 8). Each sample was triplicated.

S. aureus 272123 (MRSA) = assay: as above; conditions: Staphylococcus aureus, 24 h, read-out: MIC
From the text: as §1, §2

[2] = test system: E. coli 32313 (resistant); assay: as above; conditions: Escherichia coli, 24 h, E. coli resistant, after one day, read-out: MIC
From the text: as §1, §2

[3] = test system: S. aureus ATCC 25923 (methicillin-susceptible); assay: as above; conditions: Staphylococcus aureus, ATCC25923, 24 h, S. aureus sensitive, after one day, read-out: MIC
From the text: as §1, §2

[4] = test system: Colo320 human colon adenocarcinoma cell line (doxorubicin-resistant); assay: MTT assay, cytotoxicity at pH 6 and 7; conditions: Colo320, 72 h incubation, read-out: IC50
Procedure: (§3) All cell culture reagents were obtained from Sigma-Aldrich (Merck KGaA, Darmstadt, Germany) and plasticware from Sarstedt (Nümbrecht, Germany). Human colonic adenocarcinoma cell lines Colo205 (catalog number: ATCC-CCL-222) and its doxorubicin-resistant counterpart Colo320 (catalog number: ATCC-CCL-220.1) were purchased from LGC Promochem (Teddington, UK). The cells were cultured in RPMI 1640 medium supplemented with 10% heat-inactivated fetal bovine serum, 2 mM L-glutamine, 1 mM sodium pyruvate, and 100 mM HEPES buffer, adjusting the pH to 6.0 or 7.0. The cells were incubated at 37 °C in a 5% CO2–95% air atmosphere. The semiadherent human colon cancer cells were detached with Trypsin-Versene solution for 5 min at 37 °C.
(§4) The solutions were freshly prepared prior to measurements (see Section 2.1). […] Firstly, these samples were diluted in complete culture medium; then, two-fold serial dilutions of the compounds were prepared in 100 μL of RPMI 1640, horizontally. The semiadherent colonic adenocarcinoma cells were treated with Trypsin-Versene solution. They were adjusted to a density of 1 × 10^4 cells in 100 μL of RPMI 1640 medium and were added to each well, with the exception of the medium control wells. The final volume of the wells containing compounds and cells was 200 μL. Samples were triplicated. The pH of the medium was adjusted to 6.0 or 7.0.
(§5) The culture plates were incubated at 37 °C for 72 h; at the end of the incubation period, 20 μL of MTT solution (from a stock solution of 5 mg/mL) was added to each well. After incubation at 37 °C for 4 h, 100 μL of SDS solution (10% in 0.01 M HCI) was added to each well, and the plates were further incubated at 37 °C overnight. Cell growth was determined by measuring the optical density (OD) at 540/630 nm with a Multiscan EX ELISA reader (Thermo Labsystems, Cheshire, WA, USA). […] Curves were fitted using GraphPad Prism software (2022, version 9.4.1, Graphpad Software (LLC) d.b.a Dotmatics, San Diego, CA, USA) using the sigmoidal dose–response model (comparing variable and fixed slopes).
(§6) The pH-dependent solution speciation of the selected mixed-ligand complexes is an important feature in the hypothesized mechanism of action, and the modeling of acidosis is necessary for the in vitro anticancer assays. In order to find out the cytotoxicity difference based on the pH of the medium, cytotoxic activity was determined at pH 6 and 7 by MTT assay in two human colon adenocarcinoma cell lines (doxorubicin-sensitive Colo205 and doxorubicin-resistant Colo320). […] The mixed-ligand complexes were prepared prior to the measurements, as was already described in Section 2.1. With this method, the effect of the different counter ions could be avoided, and a more adequate comparison of the mixed-ligand complexes could be conducted.

[5] = test system: Colo205 human colon adenocarcinoma cell line (doxorubicin-sensitive); assay: MTT assay, cytotoxicity at pH 6 and 7; conditions: Colo205, 72 h incubation, read-out: IC50
Procedure: as §3, §4, §5, §6

| SMILES | MIC ([1]; pH 5) | MIC ([1]; pH 6) | MIC ([1]; pH 7) | MIC ([1]; pH 8) | MIC (S. aureus 272123 (MRSA); pH 5, after one day) | MIC (S. aureus 272123 (MRSA); pH 6, after one day) | MIC (S. aureus 272123 (MRSA); pH 7, after one day) | MIC (S. aureus 272123 (MRSA); pH 8, after one day) | MIC ([2]; pH 5) | MIC ([2]; pH 6) | MIC ([2]; pH 7) | MIC ([2]; pH 8) | MIC ([3]; pH 7) | MIC ([3]; pH 8) | IC50 ([4]; pH 6) | IC50 ([4]; pH 7) | IC50 ([5]; pH 6) | IC50 ([5]; pH 7) | further results |
| --- | --- | --- | --- | --- | --- | --- | --- | --- | --- | --- | --- | --- | --- | --- | --- | --- | --- | --- | --- |
| c1cnc2c(c1)ccc1cccnc12 [phen, 1,10-phenanthroline, reference compound] | 50 µM (≈ 9.01 µg/mL) | 50 µM (≈ 9.01 µg/mL) | 50 µM (≈ 9.01 µg/mL) | 25 µM (≈ 4.51 µg/mL) | 50 µM (≈ 9.01 µg/mL) | > 100 µM | > 100 µM | > 100 µM | 50 µM (≈ 9.01 µg/mL) | 50 µM (≈ 9.01 µg/mL) | 50 µM (≈ 9.01 µg/mL) | 50 µM (≈ 9.01 µg/mL) | > 100 µM | > 100 µM | – | – | – | – | – |
| O=P(O)(O)C(O)(Cn1ccnc1)P(=O)(O)O [zol, zoledronic acid, reference compound] | > 100 µM | > 100 µM | > 100 µM | > 100 µM | > 100 µM | > 100 µM | > 100 µM | > 100 µM | > 100 µM | > 100 µM | > 100 µM | > 100 µM | > 100 µM | > 100 µM | – | – | – | – | – |
| CC1=C(C)C(C)C(C)=C1C.Cn1ccnc1.[Rh+3].c1cnc2c(c1)ccc1cccnc12 [[RhCp*(phen)(mim)]^2+] | – | – | – | – | – | – | – | – | – | – | – | – | – | – | 71.7 ± 3.3 µM | > 100 µM | > 100 µM | > 100 µM | – |
| COc1cccc2c1C(=O)c1c(O)c3c(c(O)c1C2=O)C[C@@](O)(C(=O)CO)C[C@@H]3O[C@H]1C[C@H](N)[C@H](O)[C@H](C)O1 [doxorubicin, reference compound] | – | – | – | – | – | – | – | – | – | – | – | – | – | – | – | – | – | – | IC50 ([4]; Homo sapiens, COLO 320, pH 6): 0.46 ± 0.02 µM; IC50 ([5]; Homo sapiens, COLO 205, pH 6): 7.6 ± 0.3 µM; IC50 ([5]; Homo sapiens, COLO 205, pH 7): 0.71 ± 0.02 µM |
| CC1=C(C)C(C)C(C)=C1C.Cn1ccnc1.Oc1cccc2cccnc12.[Rh+3] [[RhCp*(8HQH−1)(mim)]^+] | – | – | – | – | – | – | – | – | – | – | – | – | – | – | 6 ± 0.1 µM | 6.1 ± 0.2 µM | 7 ± 0.4 µM | 7.2 ± 0.2 µM | – |

Source: PMC9964319, “Half-Sandwich Rhodium Complexes with Releasable N-Donor Monodentate Ligands: Solution Chemical Properties and the Possibility for Acidosis Activation” (Pharmaceutics, 2023)
